The values below come from US9539298B2, “Lissencephaly therapeutic agent” (OSAKA CITY UNIVERSITY, priority 2010, dated 2017).

Non-standard residues stand in square brackets, D forms with d. Residues, ends and D or L forms follow the SMILES beside them. Nle = CCCC[CH](N)C(=O)O

By melting point is commonly meant the temperature, or range, at which the solid turns liquid.

Data set [1] relates to nerve cells from cerebellums of FVB mice. Briefly: Analysis of toxicity of calpain inhibitors on cultured cerebellar nerve cells. The following applies: 50 μM, 16 hours, FIG. 24. The data set is classed as cell-based, mouse. Here is the method:
The cerebellums were removed from 4- to 5-day-old FVB mice (15 mice). In a Ca^2+-free Hank's Balanced Salt Solution (CF-HBSS; Ca^2+, Mg^2+-free Hank's Balanced Salt Solution (CMF-HBBS, Sigma) containing 5 mM magnesium chloride (MgCl2, Wako) and 4 mg/mL glucose (Wako)), the meninges were removed and cut into pieces. After the cerebellum fragments were washed with CF-HBSS, the fragments were allowed to stand for 20 minutes at 37° C. in CF-HBSS containing 0.025% trypsin (Invitrogen) and 6.25 μg/mL deoxyribonuclease (DNase, Sigma), and then centrifuged. The resulting tissues were washed with 10% HS/BME (DNase Medium; obtained by adding 5 mM MgCl2 and 25 μg/mL DNase to Basal Medium Eagle (BME, Invitrogen) containing 10% Horse Serum (HS, Invitrogen)) and centrifuged. DNase medium was added to the cells, and the cells were transferred to a 24-well plate (Nunc). The cells were kept still for 30 minutes at 37′C under an atmospheric environment of 5% CO2, thereby suspending the cells. The cell suspension was isolated, and then washed with 10% HS/BME. The suspension was transferred again to a 24-well plate to be cultured for 16 hours at 37° C. under an atmospheric environment of 5% CO2. The cells were collected to BME containing 1% Bovine Serum Albumin (BSA, Sigma) and 0.5% N2 supplement (Invitrogen), and the cell suspension was seeded on a 35 mm glass base dish (Iwaki) coated beforehand with poly-L-lysine (Sigma) and laminin (Sigma) in an amount of […]. The cells were cultured for 8 hours at 37° C. under an atmospheric environment of 5% CO2. The cultured nerve cells were used as test nerve cells.
A culture solution (10% HS/BME) containing SNJ-1945, E64d, or ALLN was prepared in the following manner. SNJ-1945 dissolved in dimethyl sulfoxide (Sigma, D-5879) was mixed with a culture solution so that the final concentration became 200 μM, and was kept still for an hour at 37° C., thereby completely dissolving SNJ-1945 in the culture medium. ALLN and E64d were also dissolved in culture media in the same manner, except that ALLN and E64d were added to the culture media to final concentrations of 50 μM and 100 μM, respectively. The culture media in which the components were dissolved were added to the test nerve cells prepared above in an amount of 2 ml/well, and the cells were cultured for 16 hours. As a control, the same culture was conducted using a culture medium containing the same amount of dimethyl sulfoxide (Sigma, D-5879). After culture, the cells were observed using an inverted microscope (TCS FP5S, Leica). A 20× objective lens was used. Images were taken using dedicated software (LAS AF, Leica) under the condition of 512×512 pixels.

Data set [2] has as its system cells with LIS1 gene heterozygous mutation (Lis1+/−). Conditions: Lis1+/− cells treated with ALLN, NPL 1; cited from earlier work.
Data set [3] deals with T1, μ-calpain (derived from human red blood cells) (Homo sapiens, UniProt P07384).
T1 construct: derived from human red blood cells; purchased Cosmo Bio Co., Ltd; host or cells: human red blood cells (tissue-purified)
T1 sequence (P07384 1-714): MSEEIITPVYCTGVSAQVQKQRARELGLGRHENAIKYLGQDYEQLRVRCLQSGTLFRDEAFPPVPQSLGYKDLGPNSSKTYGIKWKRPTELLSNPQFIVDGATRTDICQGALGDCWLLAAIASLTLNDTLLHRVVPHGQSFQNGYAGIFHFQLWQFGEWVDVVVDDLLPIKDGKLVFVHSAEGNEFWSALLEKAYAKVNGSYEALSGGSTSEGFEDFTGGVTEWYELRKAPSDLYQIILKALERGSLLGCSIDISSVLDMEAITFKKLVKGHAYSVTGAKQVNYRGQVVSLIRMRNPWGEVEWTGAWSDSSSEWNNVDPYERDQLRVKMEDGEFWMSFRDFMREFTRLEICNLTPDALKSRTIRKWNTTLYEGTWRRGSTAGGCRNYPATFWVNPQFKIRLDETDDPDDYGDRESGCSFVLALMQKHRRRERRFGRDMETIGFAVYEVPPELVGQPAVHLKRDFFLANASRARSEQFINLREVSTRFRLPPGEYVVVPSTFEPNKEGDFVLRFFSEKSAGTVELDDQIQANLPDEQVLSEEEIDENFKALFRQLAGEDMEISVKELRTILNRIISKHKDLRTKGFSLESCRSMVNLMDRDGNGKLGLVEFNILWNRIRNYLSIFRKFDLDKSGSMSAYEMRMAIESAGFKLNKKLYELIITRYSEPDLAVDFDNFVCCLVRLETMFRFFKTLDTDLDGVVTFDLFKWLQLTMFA
T1 sequence (P04632 1-268 partner): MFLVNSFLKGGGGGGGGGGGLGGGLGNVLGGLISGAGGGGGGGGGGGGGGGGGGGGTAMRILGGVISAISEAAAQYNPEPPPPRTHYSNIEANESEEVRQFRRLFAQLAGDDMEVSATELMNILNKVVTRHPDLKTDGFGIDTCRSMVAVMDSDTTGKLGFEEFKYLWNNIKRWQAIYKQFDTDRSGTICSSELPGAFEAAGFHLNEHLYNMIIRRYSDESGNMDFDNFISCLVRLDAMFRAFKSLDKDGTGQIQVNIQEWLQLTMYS
Briefly: Measurement of inhibitory activity against μ-calpain. The data set is classed as biochemical. Conditions: casein substrate, 30° C., 60 minutes; read-out: enzyme inhibitory activities (μM) μ-calpain. The method, then: (§1) The inhibitory activity against μ-calpain and m-calpain was assayed according to a published method (Anal. Biochem. 1993, vol. 208, p. 387-392). More specifically, 200 μL of a reaction solution containing 0.5 mg/mL casein, 50 mM Tris-HCl buffer (pH 7.4), 20 mM dithiothreitol and 1.0 nmol μ-calpain (derived from human red blood cells, Cosmo Bio Co., Ltd.) or m-calpain (derived from porcine kidney, Cosmo Bio Co., Ltd.) was added to individual 2.5 μL portions of DMSO solution containing a varying concentration of a test sample in a 96-well plate. Then, 50 μL of 20 mM aqueous calcium chloride was added thereto, and reaction was performed at 30° C. for 60 minutes. 100 μL of the reaction solution was transferred to another 96-well plate, and purified water (50 μL) and 50% aqueous solution (100 μL) of Protein Assay Dye Reagent (available from Bio-Rad Laboratories, Inc.; catalogue No. 500-600) were added thereto. The reaction mixture was allowed to stand at room temperature for 15 minutes, and its absorbance was measured at 595 nm. The absorbance of a reaction mixture prepared in the same manner as mentioned above, except that a DMSO solution containing no sample was used as a control value; and the absorbance of a reaction mixture prepared in the same manner as mentioned above, except that a 1 mM aqueous EDTA solution (50 μL) was used in place of 20 mM aqueous calcium chloride, was used as a blank value. […] Inhibition rate (%){1−(measured value−blank test value)/(control value−blank test value)}×100
The concentrations (IC50) are shown in Table 1 as enzyme (calpain) inhibitory activities (μM).

The target in data set [4] is m-calpain (derived from porcine kidney) (Sus scrofa, UniProt I3LQD3). As to the kind of experiment: Measurement of inhibitory activity against m-calpain. The data set is classed as biochemical. Conditions: casein substrate, 30° C., 60 minutes; read-out: enzyme inhibitory activities (μM) m-calpain. Here is the method: as §1, with “More” for “The inhibitory activity against μ-calpain and m-calpain was assayed according to a published method (Anal. Biochem. 1993, vol. 208, p. 387-392). More”, “The reaction mixture was allowed to stand at room temperature for 15 minutes, and its absorbance was measured at 595 nm.” left out
m-calpain (derived from porcine kidney), sequence (I3LQD3 entry or part of it): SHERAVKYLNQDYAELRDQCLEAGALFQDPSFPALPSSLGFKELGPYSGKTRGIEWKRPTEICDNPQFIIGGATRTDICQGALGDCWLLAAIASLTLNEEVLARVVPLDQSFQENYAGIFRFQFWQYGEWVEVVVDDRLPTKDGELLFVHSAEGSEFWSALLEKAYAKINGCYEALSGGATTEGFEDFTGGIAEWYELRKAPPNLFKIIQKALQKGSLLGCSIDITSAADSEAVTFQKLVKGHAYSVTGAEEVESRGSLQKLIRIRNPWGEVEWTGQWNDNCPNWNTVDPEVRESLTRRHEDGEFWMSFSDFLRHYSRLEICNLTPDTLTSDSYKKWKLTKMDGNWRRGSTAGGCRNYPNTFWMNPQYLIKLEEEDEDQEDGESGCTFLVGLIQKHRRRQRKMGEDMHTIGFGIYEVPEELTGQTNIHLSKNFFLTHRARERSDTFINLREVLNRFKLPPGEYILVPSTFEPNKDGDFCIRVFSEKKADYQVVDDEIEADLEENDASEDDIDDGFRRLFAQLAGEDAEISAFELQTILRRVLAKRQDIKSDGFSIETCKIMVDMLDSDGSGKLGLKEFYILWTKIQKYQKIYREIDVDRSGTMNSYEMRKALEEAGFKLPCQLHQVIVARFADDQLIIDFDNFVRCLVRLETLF
m-calpain (derived from porcine kidney), sequence (P04574 whole entry, further chain): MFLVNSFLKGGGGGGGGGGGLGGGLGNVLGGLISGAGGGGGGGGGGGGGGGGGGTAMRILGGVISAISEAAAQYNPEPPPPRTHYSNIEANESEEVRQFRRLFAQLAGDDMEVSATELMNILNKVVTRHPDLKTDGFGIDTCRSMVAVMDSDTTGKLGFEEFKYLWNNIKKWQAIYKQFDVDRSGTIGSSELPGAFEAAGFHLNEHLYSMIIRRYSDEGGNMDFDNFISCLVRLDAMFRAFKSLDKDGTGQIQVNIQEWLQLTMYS

As to `CCCCC(C=O)NC(=O)C(CC(C)C)NC(=O)C(CC(C)C)NC(C)=O` (stereo not drawn) [ALLN, N-Acetyl-Leu-Leu-Nle-CHO] (Ac-Leu-Leu-[Nle]-aldehyde; configuration not given here), the “neurite elongation and cell migration (cytotoxicity)” value in data set [1] is “the cells were roundly aggregated, neurite elongation was hardly observed, the cells remained accumulated in the center, and migration was hardly observed”. In data set [2], the LIS1 protein expression entry is listed as “increased LIS1 protein expression” and the neuronal migration entry is on record as “restored neuronal migration”.

`COCCOCCOCCOCCOC(=O)N[C@@H](CC(C)C)C(=O)N[C@@H](Cc1ccccc1)C(=O)C(=O)NC1CC1` [compound 19, ((1S)-1-((((1S)-1-Benzyl-2,3-dioxo-3-(cyclopropylamino)propyl)amino)carbonyl)-3-methylbutyl)carbamic acid 11-methoxy-3,6,9-trioxaundecanyl ester] gave a melting point of 97.5 to 98.5 °C. For the same compound, the IC50 in data set [3] was 0.22 µM. Further, the IC50 in data set [4] is 0.17 µM.

The compound `COCCOCCOCCOCCOCCOC(=O)N[C@@H](CC(C)C)C(=O)N[C@@H](Cc1ccccc1)C(=O)C(=O)NC1CC1` [compound 20, ((1S)-1-((((1S)-1-Benzyl-2,3-dioxo-3-(cyclopropylamino)propyl)amino)carbonyl)-3-methylbutyl)carbamic acid 14-methoxy-3,6,9,12-tetraoxatetradecanyl ester] had a melting point of 98.5 to 99.9 °C. Moreover, the IC50 in data set [3] worked out at 0.42 µM. Also, in data set [4], the IC50 is 0.19 µM.
